One may read the EC50 as the concentration at which the effect is half-maximal.

T1 sequence (Q5NUL3 whole entry): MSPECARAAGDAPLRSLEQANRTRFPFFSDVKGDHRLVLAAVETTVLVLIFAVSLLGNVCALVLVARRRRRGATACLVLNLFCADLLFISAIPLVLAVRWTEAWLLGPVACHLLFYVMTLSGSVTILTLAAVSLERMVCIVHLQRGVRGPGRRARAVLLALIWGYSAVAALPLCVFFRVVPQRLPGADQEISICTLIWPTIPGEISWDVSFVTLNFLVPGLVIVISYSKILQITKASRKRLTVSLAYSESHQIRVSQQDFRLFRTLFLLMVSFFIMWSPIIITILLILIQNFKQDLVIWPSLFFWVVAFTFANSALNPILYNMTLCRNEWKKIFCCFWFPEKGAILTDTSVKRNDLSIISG
T1 sequence (P32121 whole entry partner): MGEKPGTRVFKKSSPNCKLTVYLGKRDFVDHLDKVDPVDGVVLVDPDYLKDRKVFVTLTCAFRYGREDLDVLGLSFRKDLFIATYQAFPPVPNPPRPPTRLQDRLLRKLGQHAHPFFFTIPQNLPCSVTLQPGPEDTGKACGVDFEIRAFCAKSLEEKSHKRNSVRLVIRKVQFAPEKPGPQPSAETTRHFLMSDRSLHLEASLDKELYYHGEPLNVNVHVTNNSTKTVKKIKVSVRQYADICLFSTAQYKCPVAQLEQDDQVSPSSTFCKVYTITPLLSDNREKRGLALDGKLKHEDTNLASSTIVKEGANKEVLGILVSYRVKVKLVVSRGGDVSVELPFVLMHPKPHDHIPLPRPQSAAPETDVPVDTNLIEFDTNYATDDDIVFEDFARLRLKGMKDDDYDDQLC

One experiment addresses T1, short form of the GPR120 receptor (GPR120S) (Homo sapiens, UniProt Q5NUL3).
T1 construct: host or cells: PathHunter CHO-K1 GPR120S β-Arrestin Cell Line
Nature of the experiment: Human GPR120 DiscoveRx PathHunter Beta-Arrestin assay, Procedure β-arrestin B. The class given is cell-based. The settings on record: PathHunter CHO-K1 GPR120S β-Arrestin cell line, 5000 cells/well, read-out: hGPR120 β-arrestin B EC50. Summed up: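 PathHunter CHO-K1 β-arrestin cells expressed long-form GPR120 (Procedure A, 3000 cells/well) or short-form GPR120 (Procedure B, 5000 cells/well). Compounds were serially diluted from 25 µM and incubated 90 min at 37 °C in HBSS/20 mM HEPES/0.1% BSA, pH 7.4. Luminescence was read after 60 min detection at RT; EC50 comes from % activity versus positive control, Hill slope fixed at 1.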
In the case of `CCc1cc(CCC(=O)O)ccc1OCc1c(-c2ccc(Cl)cc2)nsc1C(F)(F)F` [Cpd 162, 3-(4-[[3-(4-chlorophenyl)-5-(trifluoromethyl)-1,2-thiazol-4-yl]methoxy]-3-ethylphenyl)propanoic acid], the EC50 was determined as 54 nM.

For the compound `Cc1ccccc1-c1snc(Cl)c1COc1c(F)cc(CCC(=O)O)cc1F` [Cpd 193, 3-(4-[[3-chloro-5-(2-methylphenyl)-1,2-thiazol-4-yl]methoxy]-3,5-difluorophenyl)propanoic acid], the EC50 stood at 990 nM. Regarding “3-(4-[[3-(4-ethylphenyl)-5-(trifluoromethyl)-1,2-thiazol-4-yl]methoxy]-1-benzothiophen-7-yl)propanoic acid [Cpd 92]”, the EC50 amounted to 31 nM. Turning to “3-(4-[[3-(4-chlorophenyl)-5-(trifluoromethyl)-1,2-thiazol-4-yl]methoxy]-3-methylphenyl)propanoic acid [Cpd 235]”, the EC50 turned out to be 322 nM. Same read-out and setting: the result for `O=C(O)CCc1cc(F)c(OCc2c(-c3ccc(Cl)c(F)c3)nsc2C(F)(F)F)c(F)c1` [Cpd 67, 3-(4-((3-(4-chloro-3-fluorophenyl)-5-(trifluoromethyl)isothiazol-4-yl)methoxy)-3,5-difluorophenyl)propanoic acid] reads 43 nM; that for `Cc1c(CCC(=O)O)ccc(OCc2c(-c3ncc(Cl)cc3F)nsc2C(F)(F)F)c1C` [Cpd 180, 3-(4-((3-(5-chloro-3-fluoropyridin-2-yl)-5-(trifluoromethyl)isothiazol-4-yl)methoxy)-2,3-dimethylphenyl)propanoic acid], 294 nM. Consider `Cc1ccc(-c2nsc(C(F)(F)F)c2COc2c(F)cc(CC(C)C(=O)O)cc2F)c(F)c1` (stereo not drawn) [Cpd 76, 3-(3,5-difluoro-4-[[3-(2-fluoro-4-methylphenyl)-5-(trifluoromethyl)-1,2-thiazol-4-yl]methoxy]phenyl)-2-methylpropanoic acid], for which the concentration for a half-maximal effect (EC50) worked out at 179 nM. With `O=C(O)CCc1cc(F)c(OCc2c(-c3ccc(Cl)cc3)nsc2C(F)(F)F)c(F)c1` [Cpd 79, 3-(4-[[3-(4-chlorophenyl)-5-(trifluoromethyl)-1,2-thiazol-4-yl]methoxy]-3,5-difluorophenyl)propanoic acid], the EC50 worked out at 62 nM. With `O=C(O)CCc1cc(F)c(OCc2c(-c3ncc(Cl)cc3F)nsc2C(F)(F)F)c(F)c1` [Cpd 153, 3-(4-((3-(5-chloro-3-fluoropyridin-2-yl)-5-(trifluoromethyl)isothiazol-4-yl)methoxy)-3,5-difluorophenyl)propanoic acid], the EC50 turned out to be 104 nM. On the same count and under the same terms, the result for `O=C(O)CCc1cc(F)c(OCc2c(-c3ccc(Cl)cc3)nsc2C(F)(F)F)c(F)c1F` [Cpd 116, 3-(4-((3-(4-chlorophenyl)-5-(trifluoromethyl)isothiazol-4-yl)methoxy)-2,3,5-trifluorophenyl)propanoic acid] reads 88 nM; that for `OCCCc1cc(F)c(OCc2c(-c3ccc4c(c3)OCO4)nsc2C(F)(F)F)c(F)c1` [Cpd 93, 3-(4-[[3-(2H-1,3-benzodioxol-5-yl)-5-(trifluoromethyl)-1,2-thiazol-4-yl]methoxy]-3,5-difluorophenyl)propan-1-ol], 27 nM. The same measure, in the same setting: the result for `O=C(O)CCc1cc(F)c(OCc2c(C3CCCC3)nsc2C(F)(F)F)c(F)c1` [Cpd 71, 3-(4-[[3-cyclopentyl-5-(trifluoromethyl)-1,2-thiazol-4-yl]methoxy]-3,5-difluorophenyl)propanoic acid] reads 139 nM; that for `Cc1c(CCC(=O)O)ccc(OCc2c(-c3ccccc3)nsc2C(F)(F)F)c1C` [Cpd 134, 3-(2,3-dimethyl-4-[[3-phenyl-5-(trifluoromethyl)-1,2-thiazol-4-yl]methoxy]phenyl)propanoic acid], 409 nM. The same measure, in the same setting: the result for `Cc1c(CCC(=O)O)ccc(OCc2sc(F)cc2-c2ccc(Cl)cc2)c1C` [Cpd 3, 3-(4-((3-(4-chlorophenyl)-5-fluorothiophen-2-yl)methoxy)-2,3-dimethylphenyl)propanoic acid] reads 83 nM; that for `O=C(O)CCc1cc(F)c(OCc2c(-c3ccc(Cl)c(F)c3)nsc2C(F)(F)F)c(F)c1F` [Cpd 138, 3-(4-((3-(4-chloro-3-fluorophenyl)-5-(trifluoromethyl)isothiazol-4-yl)methoxy)-2,3,5-trifluorophenyl)propanoic acid], 161 nM; that for `OCC#Cc1cc(F)c(OCc2c(-c3ccc(Cl)cc3)nsc2C(F)(F)F)c(F)c1` [Cpd 213, 3-(4-[[3-(4-chlorophenyl)-5-(trifluoromethyl)-1,2-thiazol-4-yl]methoxy]-3,5-difluorophenyl)prop-2-yn-1-ol], 87 nM. With `O=C(O)CCc1c(F)c(F)c(OCc2c(-c3ccc(Cl)cc3)nsc2C(F)(F)F)c(F)c1F` [Cpd 152, 3-(4-((3-(4-chlorophenyl)-5-(trifluoromethyl)isothiazol-4-yl)methoxy)-2,3,5,6-tetrafluorophenyl)propanoic acid], the EC50 is 183 nM. Still for that read-out and setting: the result for `Cc1ccc(-c2nsc(C(F)(F)F)c2COc2c(F)cc(CCC(=O)O)cc2F)c(F)c1` [Cpd 65, 3-(3,5-difluoro-4-[[3-(2-fluoro-4-methylphenyl)-5-(trifluoromethyl)-1,2-thiazol-4-yl]methoxy]phenyl)propanoic acid] reads 126 nM. As for `CCc1ccc(-c2cc(F)sc2COc2ccc(CCC(=O)O)c(C)c2C)cc1` [Cpd 1, 3-(4-[[3-(4-ethylphenyl)-5-fluorothiophen-2-yl]methoxy]-2,3-dimethylphenyl)propanoic acid], the EC50 came to 205 nM. For the compound `O=C(O)CCc1cc(F)c(OCc2c(-c3ccc(Cl)cc3F)nsc2C(F)(F)F)c(F)c1` [Cpd 74, 3-(4-((3-(4-chloro-2-fluorophenyl)-5-(trifluoromethyl)isothiazol-4-yl)methoxy)-3,5-difluorophenyl)propanoic acid], the EC50 is 63 nM.

Take `CC(Cc1cc(F)c(OCc2c(-c3ccc(Cl)cc3)nsc2C(F)(F)F)c(F)c1)C(=O)O` (stereo not drawn) [Cpd 108, 3-(4-[[3-(4-chlorophenyl)-5-(trifluoromethyl)-1,2-thiazol-4-yl]methoxy]-3,5-difluorophenyl)-2-methylpropanoic acid]: the EC50 was determined as 162 nM. The same measure, in the same setting: the result for `Cc1c(CCC(=O)O)ccc(OCc2c(-c3ccc(Cl)cc3)nsc2C(F)(F)F)c1C` [Cpd 142, 3-(4-((3-(4-chlorophenyl)-5-(trifluoromethyl)isothiazol-4-yl)methoxy)-2,3-dimethylphenyl)propanoic acid] reads 100 nM; that for “3-(4-[[3-(4-ethylphenyl)-5-(trifluoromethyl)-1,2-thiazol-4-yl]methoxy]-3,5-difluorophenyl)propanoic acid [Cpd 70]”, 68 nM; that for `OCCCc1cc(F)c(OCc2c(-c3ccc4c(c3)OCO4)csc2C(F)(F)F)c(F)c1` [Cpd 37, 3-(4-((4-(benzo[d][1,3]dioxol-5-yl)-2-(trifluoromethyl)thiophen-3-yl)methoxy)-3,5-difluorophenyl)propan-1-ol], 22 nM.

For another experiment, the system named is C57bl/6J mice. Nature of the experiment: C57bl6 mouse OGTT. The class given is in vivo. The settings on record: 3 mg/kg dosed 30 min before glucose PO 3 g/kg. On the procedure: Male, C57bl/6J Mice were ordered in at 8 weeks of age from Jackson Labs. Individual mice weighed anywhere in the range of 25-30 grams on study day. The mice were fasted, with removal of food occurring at 7 am on the morning of the study. Animals were moved into the room at 10:00 am, to give them time to acclimate. Glucose (insulin syringes) was drawn up either the night before or the morning of the study. Glucose was dosed (IP) at 1.5 g/kg at 7.5 ml/kg (20% glucose straight TEKNOVA, 250 ml sterile bottle w/catalogue number G0525). Test compounds were kept spinning and were only drawn into the syringes prior to study commencement. Animals were bled via tail snip to determine basal glucose levels prior to dosing of treatments. An Ascensia BREEZE Blood Glucose Monitoring System by Bayer (using unique 10-test disks) was used for determining glucose levels. The bleeds started at approximately 12:45 pm and dosing started, at 1-minute intervals, immediately after. All groups were dosed 30 minutes prior to glucose administration at a dose volume of 10 ml/kg (the dose volume was calculated separately for each individual animal). Thirty minutes after the first dose animals were bled again for a second baseline, or T=0, and immediately dosed with glucose via an i.p. injection. The exact dose volume for glucose was also calculated separately for each individual animal. Glucose measurements were taken at −30 min prior to compound dose, at t=0 (immediately prior to glucose dose), and at 15, 30, 45, 60, 90 min post glucose dose.
Glucose values were entered into an Excel sheet and graphed in GraphPad Prism. The following were calculated from Prism: Change from −30 to 0 BSLN Glucose, Raw Glucose AUC −30 to 90 min, Delta Glucose AUC −30 to 90 min, Raw Glucose AUC 0 to 90 min, Delta Glucose AUC 0 to 90 min.
The assay design is the same as that described above for the C57bl6 mouse IPGTT. The difference is that glucose was dosed PO at 3 g/kg, 7.5 ml/kg of 40% glucose.
Representative compounds of the present invention were tested according to the procedures as described in Biological Example 4, above with results as listed in Table 3, below. […] Where a compound was tested more than once, each result is listed individually.
Take “3-(4-[[3-(4-ethylphenyl)-5-(trifluoromethyl)-1,2-thiazol-4-yl]methoxy]-1-benzothiophen-7-yl)propanoic acid [Cpd 92]”: the “C57 OGTT 3 mg/kg” value is −39. The same measure, in the same setting: the result for `OCCCc1cc(F)c(OCc2c(-c3ccc(Cl)cc3)nsc2C(F)(F)F)c(F)c1` [Cpd 100, 3-(4-[[3-(4-chlorophenyl)-5-(trifluoromethyl)-1,2-thiazol-4-yl]methoxy]-3,5-difluorophenyl)propan-1-ol] reads −39; that for `O=C(O)CCc1cc(F)c(OCc2c(C3CCCC3)nsc2C(F)(F)F)c(F)c1` [Cpd 71, 3-(4-[[3-cyclopentyl-5-(trifluoromethyl)-1,2-thiazol-4-yl]methoxy]-3,5-difluorophenyl)propanoic acid], −37. Regarding `OCCCc1ccc(OCc2c(Cl)nsc2-c2ccc(Cl)cc2)c(F)c1F` [Cpd 102, 3-(4-((3-chloro-5-(4-chlorophenyl)isothiazol-4-yl)methoxy)-2,3-difluorophenyl)propan-1-ol], the “C57 OGTT 3 mg/kg” value is reported as −32. `Cc1c(CCC(=O)O)ccc(OCc2c(-c3ccc(Cl)cc3)nsc2C(F)(F)F)c1C` [Cpd 142, 3-(4-((3-(4-chlorophenyl)-5-(trifluoromethyl)isothiazol-4-yl)methoxy)-2,3-dimethylphenyl)propanoic acid]: the “C57 OGTT 3 mg/kg” value was −49. Still for that read-out and setting: the result for `CCc1ccc(-c2snc(Cl)c2COc2ccc(CCC(=O)O)c(C)c2C)cc1` [Cpd 85, 3-(4-[[3-chloro-5-(4-ethylphenyl)-1,2-thiazol-4-yl]methoxy]-2,3-dimethylphenyl)propanoic acid] reads −49.

The values above are taken from patent US9067898B1, “Isothiazole derivatives as GPR120 agonists for the treatment of type II diabetes” (Janssen Pharmaceutica NV, priority 2014, dated 2015).
